Measured values as given in the CheMixHub viscosity set.

Assay: xn = mol fraction of the nth substance listed

CS(C)=O + OCCO
viscosity [mPa·s]
Conditions | 298.15 K | 303.15 K | 308.15 K | 313.15 K | 318.15 K | 323.15 K
100 kPa, x1 = 0.105 | 12.96 | 10.76 | 8.98 | 7.61 | 6.51 | 5.63
100 kPa, x1 = 0.1987 | 10.61 | 8.91 | 7.45 | 6.39 | 5.54 | 4.82
100 kPa, x1 = 0.2971 | 8.58 | 7.31 | 6.14 | 5.32 | 4.51 | 4.09
100 kPa, x1 = 0.3911 | 6.94 | 5.97 | 5.09 | 4.45 | 3.86 | 3.48
100 kPa, x1 = 0.5099 | 5.28 | 4.59 | 4.03 | 3.56 | 3.02 | 2.84
100 kPa, x1 = 0.5932 | 4.45 | 3.93 | 3.46 | 3.07 | 2.72 | 2.48
100 kPa, x1 = 0.702 | 3.68 | 3.26 | 2.91 | 2.61 | 2.45 | 2.13
100 kPa, x1 = 0.7931 | 3.21 | 2.86 | 2.58 | 2.32 | 2.24 | 1.91
100 kPa, x1 = 0.9003 | 2.74 | 2.46 | 2.21 | 2 | 1.92 | 1.67
101 kPa, x1 = 0.0799 | – | – | 10.2 | – | – | –
101 kPa, x1 = 0.206 | – | – | 9.506 | – | – | –
101 kPa, x1 = 0.3426 | – | – | 8.715 | – | – | –
101 kPa, x1 = 0.4387 | – | – | 8.143 | – | – | –
101 kPa, x1 = 0.5397 | – | – | 7.399 | – | – | –
101 kPa, x1 = 0.6459 | – | – | 6.235 | – | – | –
101 kPa, x1 = 0.7517 | – | – | 4.953 | – | – | –
101 kPa, x1 = 0.8456 | – | – | 3.731 | – | – | –
101 kPa, x1 = 0.9271 | – | – | 2.599 | – | – | –
101 kPa, x2 = 0.0621 | 2.42 | 2.19 | 1.98 | 1.8 | 1.63 | 1.5
101 kPa, x2 = 0.1227 | 3.05 | 2.66 | 2.43 | 2.24 | 2.02 | 1.84
101 kPa, x2 = 0.1819 | 4.26 | 3.66 | 3.21 | 2.8 | 2.51 | 2.27
101 kPa, x2 = 0.2394 | 5.61 | 4.72 | 4.02 | 3.49 | 3.06 | 2.73
101 kPa, x2 = 0.2958 | 7.14 | 5.91 | 4.88 | 4.19 | 3.56 | 3.14
101 kPa, x2 = 0.3504 | 8.45 | 7.01 | 5.72 | 4.83 | 4.12 | –
101 kPa, x2 = 0.404 | 9.69 | 7.96 | 6.43 | 5.48 | 4.63 | –
101 kPa, x2 = 0.4562 | 10.8 | 8.81 | 7.13 | 6.01 | 5.11 | –
101 kPa, x2 = 0.5076 | 11.7 | 9.54 | 7.73 | 6.52 | 5.52 | –
101 kPa, x2 = 0.5568 | 12.6 | 10.2 | 8.27 | 6.95 | 5.88 | –
101 kPa, x2 = 0.6061 | 13.3 | 10.7 | 8.72 | 7.33 | 6.2 | –
101 kPa, x2 = 0.6537 | 14 | 11.2 | 9.12 | 7.65 | 6.49 | –
101 kPa, x2 = 0.7004 | 14.6 | 11.6 | 9.44 | 7.94 | 6.72 | –
101 kPa, x2 = 0.7461 | 15.1 | 12 | 9.75 | 8.22 | 6.93 | –
101 kPa, x2 = 0.7906 | 15.5 | 12.4 | 9.99 | 8.48 | 7.15 | –
101 kPa, x2 = 0.8342 | 16 | 12.8 | 10.2 | 8.71 | 7.33 | –
101 kPa, x2 = 0.8769 | 16.5 | 13.1 | 10.5 | 8.95 | 7.53 | –
101 kPa, x2 = 0.9189 | 16.9 | 13.4 | 10.9 | 9.2 | 7.71 | –
101 kPa, x2 = 0.9599 | 17.3 | 13.7 | 11.1 | 9.41 | 7.9 | –
